Results from paper PMC7841069, “Identification of Chalcone Derivatives as Inhibitors of Leishmania infantum Arginase and Promising Antileishmanial Agents” (Frontiers in Chemistry, 2021).
Like-named read-outs stand apart in the source and are kept apart here.

Assays:
[1] = test system: Leishmania infantum intracellular amastigotes; assay: Activity against intracellular amastigotes (promastigote recovery assay); format: cell-based; details: for Selectivity Index AMA: CC50 host cell / IC50 intracellular amastigotes
Procedure: (§1) Intracellular anti-amastigote activity was determined using the promastigote recovery assay with minor modifications (Ferreira et al., [2017]). RAW 264.7 macrophages were plated on 96-well microplates at a density of 10^5 cells/well and incubated at 37°C in 5% CO2 for 2 h. After this period, adherent cells were washed twice with phosphate buffered saline (PBS, pH 7.2) and infected with stationary-phase L. infantum promastigotes at a 10:1 parasite/macrophage ratio. After 4 h of infection at 37°C in 5% CO2, free parasites were removed by a wash step with PBS and infected macrophages were incubated for an additional 24 h to allow parasite differentiation into amastigotes. Then, infected cells were treated with increasing concentrations of selected LiARG inhibitors (11.0–54.0 μM) for 48 h. After this period, the culture supernatant was collected for the evaluation of NO production by the Griess reaction (Misko et al., [1993]), and cells were washed with PBS. Subsequently, PBHIL medium supplemented with 5% fetal bovine serum was added and the cultures were incubated at 26°C for 72 h to recover L. infantum promastigotes. Only viable amastigotes can differentiate into promastigotes. Then, parasite viability was determined by a colorimetric assay using MTT (1.0 mg/mL) (Sigma-Aldrich, USA), as described earlier. Fungizone® (130–540 nM) was used as the reference drug. Results were expressed as percentages of viability in relation to the control (100% viability). The 50% inhibitory concentration (IC50) values were determined by the nonlinear regression fits of the dose-response curves using GraphPad Prism 8.0. All measurements were performed in triplicates, twice independently.
(§2) The selectivity index for promastigotes and intracellular amastigotes of L. infantum was calculated by taking the ratio between the CC50 obtained for the host cell and the IC50 obtained for the parasite. Inhibitors displaying selectivity index > 10 were considered low cytotoxic (Katsuno et al., [2015]).

[2] = Cytotoxicity assay (MTT); format: cell-based; details: mouse, read-out: RAW 264.7 CC50 ± SE
Procedure: (§3) RAW 264.7 macrophages were cultured in DMEM medium (Sigma-Aldrich, USA) supplemented with 10% fetal bovine serum at 37°C in 5% CO2 atmosphere. Cells were plated on 96-well microplates at a density of 10^5 cells/well and incubated at 37°C in 5% CO2 for 2 h. After this period, increasing concentrations of inhibitors (0.9–4,307 μM) were added and the cultures were incubated at 37°C in 5% CO2 for 48 h. Subsequently, cell viability was measured by a colorimetric assay using 3-(4,5-dimethylthiazol-2-yl)-2,5-diphenyl tetrazolium bromide (MTT) (Sigma-Aldrich, USA). MTT was added to the culture medium at a final concentration of 1.0 mg/mL, and cultures were incubated at 37°C in 5% CO2 for 3 h. MTT was transformed by the living cells in formazan crystals that were dissolved in DMSO. The concentration of formazan was measured spectrophotometrically at 570 nm (SpectraMax M5, Molecular Devices, CA). The 50% cytotoxic concentration (CC50) values were determined by the nonlinear regression fits of the dose-response curves using GraphPad Prism 8.0. All measurements were performed in triplicates, twice independently.

[3] = test system: L. infantum-infected macrophages; assay: NO production by L. infantum-infected macrophages (Griess reaction); format: cell-based; details: 11–54 μM, 48 h, vs untreated control
Procedure: as §1
Figure 4 Effect of chalcone derivatives on the production of nitric oxide by L. infantum-infected macrophages. L. infantum-infected macrophages were treated with increasing concentrations of (A–D) chalcone derivatives (11–54 μM) or (E) the reference drug fungizone (0.13–0.54 μM) and nitrite concentration was measured by the Griess reaction. Control represents the amount of nitric oxide produced by L. infantum-infected macrophages in the absence of any treatment. Statistical analysis of the differences between mean values obtained for the experimental groups was done by ANOVA with Tukey's post hoc test.

[4] = test system: Leishmania infantum promastigotes; assay: Activity against Leishmania infantum promastigotes (resazurin); format: cell-based; details: for Selectivity Index PRO: CC50 host cell / IC50 promastigotes; for IC50: Leishmania infantum, read-out: Promastigotes IC50 ± SE
Procedure: Promastigotes of Leishmania infantum strain MHOM/BR/1974/PP75 were cultured in Schneider's medium supplemented with 10% fetal bovine serum at 26°C. First, the selected LiARG inhibitors were diluted in culture medium at concentrations ranging from 2.9 to 1,723.0 μM. Then, late-exponential phase (after 96 h growth) L. infantum promastigotes, at a final density of 10^5 parasites/mL, were incubated with previously diluted inhibitors at 26°C for 96 h. Subsequently, parasite viability was determined by a colorimetric assay using resazurin (Sigma-Aldrich, USA). Resazurin was added to the culture medium at a final concentration of 0.001% (w/v), and cultures were further incubated at 26°C for 4 h (Rólon et al., [2006]). Resazurin is reduced to resorufin by living cells, and the relative concentration of resorufin/resazurin was measured spectrophotometrically at 570/600 nm (SpectraMax M5, Molecular Devices, CA), respectively. Fungizone® (2.0–650.0 nM) was used as the reference drug. The 50% inhibitory concentration (IC50) values were determined by the nonlinear regression fits of the dose-response curves using GraphPad Prism 8.0. All measurements were performed in triplicates, twice independently.
as §2

[5] = test system: Leishmania amazonensis arginase (LaARG); design: method as in da Silva et al. (2019); details: 100 μM; ref da Silva et al. (2019); cited from earlier work
[6] = test system: RAW 264.7 macrophages; design: method as in Ventura et al. (2015); details: ref Ventura et al. (2015), read-out: IC50 for NO; cited from earlier work
[7] = test system: RAW 264.7 macrophages; assay: Cytotoxicity assay (MTT); format: cell-based; details: 48 h
Procedure: as §3

[8] = test system: Leishmania infantum arginase (LiARG); assay: LiARG enzyme inhibition assay (urea formation, UREA CE kit); format: biochemical; details: 100 μM inhibitor; control without inhibitor = 100% activity
Procedure: LiARG expression and purification was performed as described previously (Garcia et al., [2019]). Escherichia coli BL21 (DE3) cells were transformed with RP1B-LiARG. Cells were grown at 37°C until mid-exponential phase (Abs600 ~ 0.6). Protein expression was induced with 1 mM IPTG and cells were grown for 16 h at 30°C. Cells were harvested by centrifugation, resuspended in lysis buffer [50 mM Tris-HCl (pH 8.0), 500 mM NaCl, 5 mM imidazol, 0.1% Triton-X 100, 250 μM PMSF, 10 mM β-mercaptoethanol] and lysed by sonication (15 cycles 60 s on and 60 s off, 100 W). The cell lysate was centrifuged (8,000 X g, 40 min, 4°C), and the clarified supernatant was loaded onto a His-Trap HP column (GE Healthcare, USA). A wash step with 100 mM manganese chloride was carried out for enzyme activation. LiARG was eluted with an imidazole gradient ranging from 5 to 500 mM. […] LiARG activity was measured using the UREA CE kit (Labtest, Brazil). Urea concentration was determined spectrophotometrically (SpectraMax M5, Molecular Devices, CA) by hydrolyzing urea into ammonia and then converting ammonia into indophenol blue, which absorbs light at 600 nm ([…] and Scott, [1960]). Enzyme activity was measured with 0.2 μg/mL LiARG incubated with 50 mM L-arginine in 50 mM CHES (pH 9.5) at 37°C for 5 min. […] The results are expressed as percentage of LiARG activity taking the enzymatic activity of the control as 100%. […]

[9] = Leishmania infantum, Macrophage, 48 h, infected macrophages treated 48 h, promastigote recovery, MTT, read-out: Amastigotes IC50 ± SE

SMILES | Selectivity Index AMA [1] | IC50 [1, 9] [µM] | CC50 at 48 h ([2]; RAW 264.7 macrophages) [µM] | production of NO by L. infantum-infected macrophages [3] | Selectivity Index PRO [4] | IC50 ([4]; 96 h, resazurin) [µM] | further results
COc1ccc(/C=C/C(=O)c2ccccc2Cl)cc1 [LC34] | 46.0 | 65.4 ± 10.9 | 3010 | no significant difference to the untreated control | 4.0 | 747 ± 22.3 | –
O=C1c2c(O)cc(O)cc2OC(c2ccc(O)c(O)c2)C1O (stereo not shown) [taxifolin] | – | – | – | – | – | – | LaARG inhibition [5]: 88%
COc1ccc(C(=O)C=Cc2ccc([N+](=O)[O-])cc2)cc1 [LC41, 1-(4-Methoxyphenyl)-3-(4-Nitrophenyl)-2-Propen-1-one] | 26.2 | 70.4 ± 9.6 | 1150 | significantly decreased | 3.6 | 319 ± 14.3 | IC50 ([1]; infected macrophages treated 48 h, promastigote recovery, MTT, read-out: Amastigotes IC50 ± SE): 43.7 ± 13.7 µM; IC50 [6]: 13.5 ± 5.5 µM
COc1ccc(C=CC(=O)c2ccc(Br)cc2)cc1OC [LC14, 1-(4-bromophenyl)-3-(3,4-dimethoxyphenyl)-2-Propen-1-one] | – | – | 75.1 ± 8.9 | – | <1 | 283 ± 14.2 | IC50 [6]: 58.9 ± 6.8 µM
O=C(c1ccccc1)C(C(O)c1ccccc1Cl)C(O)c1ccccc1Cl (stereo not shown) [LC37, 3-hydroxy-2-[-hydroxy(2-Chlorophenyl)methyl]-3-(2-Chlorophenyl)-1-phenyl-1-Propanone] | – | – | > 4000 | – | – | > 1500 | RAW 264.7 CC50 ± SE [7]: did not inhibit the growth of RAW 264.7 macrophages at the highest concentration tested; Promastigotes IC50 ± SE ([4]; 96 h, resazurin): did not display in vitro activity
O=C(C=Cc1ccc([N+](=O)[O-])cc1)c1ccc(Br)cc1 [LC39, 1-(4-Bromophenyl)-3-(4-Nitrophenyl)-2-Propen-1-one] | 107.1 | – | – | no significant difference to the untreated control | 11.4 | – | IC50 ([1]; Leishmania infantum, Macrophage, 48 h, read-out: Amastigotes IC50 ± SE, infected macrophages treated 48 h, promastigote recovery, MTT): 55.2 ± 3.8 µM; IC50 ([1]; read-out: Amastigotes IC50 ± SE, infected macrophages treated 48 h, promastigote recovery, MTT): 42.3 ± 17.1 µM; CC50 at 48 h [2]: 4530 ± 212 µM; IC50 ([4]; 96 h): 398 ± 44.2 µM
O=c1c(O)c(-c2ccc(O)c(O)c2)oc2cc(O)cc(O)c12 [quercetin] | – | – | – | – | – | – | ARGLi inhibition (%) (100 μM) [8]: 67.1 ± 10.3%
O=C(C=Cc1ccc(F)cc1)c1ccccc1Cl [LC32, 1-(2-Chlorophenyl)-3-(4-fluorophenyl)-2-Propen-1-one] | 4.3 | 112 ± 19.8 | 479 ± 19.5 | significantly decreased | 6.5 | 74.1 ± 10.9 | –
